Assay results: the Biogen ADME set (Fang et al. 2023)
Values after ≈ are worked out from the molar mass of the structure shown. Non-standard residues stand in square brackets, D forms with d. Residues, ends and D or L forms follow the SMILES beside them. *: point of attachment. Fmoc = O=C(OCC1c2ccccc2-c2ccccc21)*; Cha = N[C@@H](CC1CCCCC1)C(=O)O; AMC = Cc1cc(=O)oc2cc(N*)ccc12

Settings: for aqueous solubility: pH 6.8

Compound | MDR1-MDCK efflux ratio | intrinsic clearance, human liver microsomes [mL/min/kg] | intrinsic clearance, rat liver microsomes [mL/min/kg] | aqueous solubility [µg/mL] | fraction unbound, rat plasma | fraction unbound, human plasma
O=C(c1cccs1)N1C[C@@H]2CCCN(C(=O)c3cccs3)[C@@H]2C1 | 2.37 | 5.78 | 151 | 63.1 (≈ 182 µM) | – | –
COc1ccc(CCNCc2ccc(-c3ccccc3)o2)cc1OC | 0.979 | 63.8 | 1090 | 74.3 (≈ 220 µM) | – | –
CN1CCC(NC(=O)COc2ccc(C#N)cc2)CC1 | 2.44 | ≤ 4.74 | ≤ 10.7 | 35.2 (≈ 129 µM) | – | –
CC(C)c1cnc(COc2ccc(Br)nc2)o1 | 0.527 | 73 | 983 | 41.7 (≈ 140 µM) | – | –
Cc1nn(C)c2sc(C(=O)N3CCC(C(=O)O)(c4ccccc4)CC3)cc12 | 8.54 | ≤ 4.74 | ≤ 10.7 | 73.7 (≈ 192 µM) | – | –
Cc1ccc(=O)n(CC2(O)CCN(Cc3ccc4ccccc4n3)CC2)n1 | – | ≤ 4.74 | 90.1 | – | – | –
Cc1ccccc1N1C(=O)c2ccc(C(=O)NC(C)(C)C)cc2C1=O | – | – | – | 49.9 (≈ 148 µM) | – | –
COc1cc(C)cc(OC)c1-c1ccc(OCC(N)=O)cc1 | – | ≤ 4.74 | 253 | – | – | –
Cc1ccccc1-n1cc[nH]c(=O)c1=O | 1.26 | 5.09 | ≤ 10.7 | 58.4 (≈ 289 µM) | – | –
CCC(CC)NC(=O)c1cc(C)nc2onc(C)c12 | 1.34 | ≤ 4.74 | ≤ 10.7 | 45.5 (≈ 174 µM) | – | –
CNC(=O)c1ccc(N2CCCC2)nc1 | 0.58 | 44.7 | 58.1 | 34.7 (≈ 169 µM) | – | –
CCCCC1=NC2(CCCC2)C(=O)N1Cc1ccc(-c2ccccc2-c2nnn[nH]2)cc1 | 75.6 | 9.16 | 108 | 29.5 (≈ 68.7 µM) | – | –
COc1cc2c(cc1NC(C)=O)oc1ccccc12 | 0.379 | 117 | 63.7 | 34.4 (≈ 135 µM) | – | –
CCCNC(=O)Nc1ccc(Oc2ncnc3cc(OC)c(OC)cc23)cc1Cl | 6.08 | – | – | 0.22 (≈ 0.528 µM) | – | –
COc1cccc(C(=O)Nc2nccs2)c1 | 0.562 | 109 | 605 | – | – | –
Cc1cccc2cnc(C3CCN(C(=O)CCc4ccno4)CC3)cc12 | – | 31.2 | 729 | – | – | –
Cc1nn(C(C)C)c(C)c1S(=O)(=O)NCC1CCN(C(=O)C2CC2)CC1 | 83.8 | 92.1 | 445 | – | – | –
CC(C)c1cccc(CN2C(=O)N(C)C3(CCCCC3)C2=O)n1 | 1.13 | 826 | 4200 | 35 (≈ 111 µM) | – | –
NCCCC[C@H](N[C@@H](CCc1ccccc1)C(=O)O)C(=O)N1CCC[C@H]1C(=O)O | – | – | – | – | 1 | –
c1cc(CNc2ncc(-c3cnccn3)c(C3CC3)n2)ccn1 | 1.35 | 25 | 1310 | – | – | –
NC(=O)C1(Cc2ccc(-c3ccncc3)cc2)CCN(C(=O)Cc2cccc(F)c2)CC1 | – | – | – | 63 (≈ 146 µM) | 0.114 | 0.102
CN(Cc1ccn(-c2ccccc2)n1)C(=O)c1ccc(O)nc1 | 30.8 | ≤ 4.74 | ≤ 10.7 | 39.6 (≈ 128 µM) | – | –
Clc1ccc(CSc2nc(-c3ccccc3)c[nH]2)cn1 | 0.621 | 229 | 2880 | – | – | –
CC(=O)Nc1ccc(C(=O)N2CCCCC2c2nc(N)ncc2-c2ccc(Cl)cc2)cc1 (stereo not given) | 106 | 40.7 | 643 | 57.8 (≈ 128 µM) | 0.0355 | 0.0395
Cc1noc(C)c1COc1ccc2ncccc2c1 | – | 86.8 | 337 | – | – | –
O=C(CCc1ccc(-c2ccccc2)o1)N1CCC(n2c(=O)[nH]c3ccccc32)CC1 | – | 255 | 1760 | – | – | –
O=C(Cc1csc(-c2ccc(F)c(F)c2)n1)NCC(F)(F)F | – | – | – | 0.36 (≈ 1.07 µM) | – | –
Fc1cccc(CN2CCN(c3ncccn3)CC2)c1 | 0.527 | 111 | 1120 | 38 (≈ 140 µM) | – | –
Cc1cc(=O)oc2cc(NC(=O)[C@H](CCCCN)NC(=O)[C@H](CC3CCCCC3)NC(=O)OCC3c4ccccc4-c4ccccc43)ccc12 (Fmoc-[Cha]-Lys-{AMC}) | 1.11 | ≤ 4.74 | ≤ 10.7 | – | – | –
O=C(c1ccc2[nH]ccc2c1)N1CCCC(c2cccc(-c3ccc(F)cc3)n2)C1 (stereo not given) | 1.6 | 72.8 | 571 | 2.35 (≈ 5.88 µM) | – | –
